The test system of experiment [1] is human normal skin keratinocytes on collagen gel containing normal human skin fibroblasts (NHDF). The experiment is described as follows: Three-dimensional cultured skin on a sugar-containing dermal cell structure (Test Example 1). Type of experiment: cell-based. Particulars: 30 mg/mL sugar added instead of trehalose to collagen gel containing fibroblasts. The method, then: Subsequently, about 1 mL of the gel obtained was poured into a transwell-collagen coated insert (catalog number: 3492, manufactured by Costar; pore size: 3.0 μm, surface area: 4.67 cm^2), which is a cell culture insert, and allowed to stand in an incubator for 5 minutes or more. 5 mL of DMEM containing 10 v/v % FCS and 1 v/v % ABAM (Antibiotics-Antimycotic solution, 100×, manufactured by ThermoFisher Scientific Inc.) in which normal human skin fibroblasts (NHDF, manufactured by Cambrex Corporation) were suspended at a cell density of 5×10^5 cells/mL was added to 29 mL of the gel solution I. About 3.5 mL of a gel solution containing the cells was added to the cell culture insert, and the mixture was allowed to stand in a 37° C. incubator for 30 minutes to gel.
• (2) Next, the collagen gel (layered dermal cell structure) containing NHDF was pre-cultured for 5 days using a DMEM medium containing 50 μg/ml ascorbic acid, 10 v/v % FCS, and 1 v/v % ABAM. Next, human normal skin keratinocytes suspended in MCDB medium were seeded on the collagen gel surface so as to be 1.28×10^5 cells/cm^2, and a medium obtained by mixing equal amounts of MCDB Type-II medium (Growth Medium 2 in JP-B2-3066624) and EGM was added to an external liquid of the cell culture insert and the inside of the insert, followed by culturing at 37° C. for 2 days.
• (3) The medium was replaced with a cornification medium (CM medium), and the cell culture insert was placed such that a porous membrane of the cell culture insert was located at a gas-liquid interface of the cornification medium. In this state, the cells were subjected to gas-liquid interface culture at 37° C. for 7 to 14 days to induce differentiation, thereby obtaining three-dimensional cultured skin. The medium was replaced every two days from the start of the culture.

Experiment [2] concerns EREG, ARG2, CCL2, IL1RN, PGF, SPP1, VEGFA, AREG and DPT mRNA. Description: qPCR of genes in monolayer fibroblasts, 24 hours (Test Example 3-3). Type of experiment: cell-based, human. The note with it: group treated with hyaluronic acid oligosaccharides (HA oligo). The procedure: In the same manner as in Test Example 3-2, NHDF was cultured in 1% FCS and 1% ABAM-containing DMEM medium containing 0, 30, or 100 mg/mL trehalose or hyaluronic acid oligosaccharide 4mer (HA4) (product code 11006, manufactured by Cosmo Bio Co., Ltd.) for 24 hours, and RNA was recovered from the cells. Also, as a control, RNA was recovered from fibroblasts before treatment (0 h in FIG. 9). The obtained sample was subjected to the same operation as in Test Example 3-2, and qPCR for genes EREG, ARG2, CCL2, IL1RN, PGF, SPP1, VEGFA, AREG and DPT was performed. GAPDH was used as a reference gene.
A general note: Quantitative PCR measures a nucleic acid by following its amplification.

These results are taken from patent US20250270513A1, “METHOD FOR PRODUCING CULTURED TISSUE, AND PREPARATION FOR EXTERNAL APPLICATION” (National University Corporation Ehime University, priority 2019, published 2025).

Turning to `OC[C@H]1O[C@@](CO)(O[C@H]2O[C@H](CO)[C@@H](O)[C@H](O)[C@H]2O)[C@@H](O)[C@@H]1O` [sucrose, reference compound], the “formation of epithelial tissue layer” value in experiment [1] is on record as “no epithelial tissue layer was formed”.

On to `O=C(CO)[C@@H](O)[C@H](O)[C@H](O)CO` [fructose, reference compound], for which the “formation of epithelial tissue layer” value in experiment [1] is recorded as “no epithelial tissue layer was formed”.

“hyaluronic acid oligosaccharide 4mer [hyaluronic acid oligosaccharides, reference compound]”: the “increase in mRNA expression level of genes EREG, ARG2, CCL2, IL1RN, PGF, SPP1, VEGFA, AREG and DPT” value in experiment [2] is “not observed”.
